From the SangsterLogP compilation

Assay: method code SF-AS, from DOI: 10.1016/0223-5234(89)90112-8
Conditions: not given

Which logP does the source give for `CC1C(c2ccccc2)OC(O)(c2ccccc2)CN1C` (stereo not drawn) here?
Its logP is 1.87.

Which logP does the source give for `CN1CCOC(OCCc2ccccc2)(c2ccccc2)C1` (stereo not drawn) here?
The logP was 2.11.

Which logP does the source give for `CCCCCCCCOC1(c2ccccc2)CN(C)CCO1` (stereo not drawn) here?
The logP was 2.32.

For `CN1CCOC(O)(c2ccc(Br)cc2)C1` (stereo not drawn), which logP is on record?
Its logP is 1.57.

With `CN1CCOC(O)(c2cccc(C(F)(F)F)c2)C1` (stereo not drawn) as the compound, how does the logP read?
Its logP is 1.39.

For `CCCOC1(c2ccc(Br)cc2)CN(C)CCO1` (stereo not drawn), which logP is on record?
Its logP is 2.19.

Same assay, conditions: pH 7.4

For `CCOC1(c2ccccc2)OCCN(C)C1C` (stereo not drawn), which logD is on record?
Its logD is 1.74.

For `CC1CN(C)CC(O)(c2ccccc2)O1` (stereo not drawn), which logD is on record?
The logD was 1.48.

With `CC1N(C)CCOC1(O)c1ccccc1` (stereo not drawn) as the compound, how does the logD read?
The logD was 1.31.

For `CCCOC1(c2ccccc2)CN(C)CCO1` (stereo not drawn), which logD is on record?
The logD was 1.95.

For `CN1CCOC(O)(c2ccccc2)C1` (stereo not drawn), which logD is on record?
The logD was 1.3.

With `C=CCOC1(c2ccccc2)CN(C)CCO1` (stereo not drawn) as the compound, how does the logD read?
Its logD is 1.92.

For `C#CCOC1(c2ccccc2)CN(C)CCO1` (stereo not drawn), which logD is on record?
The logD was 1.76.

With `CN1CCOC(O)C1c1ccccc1` (stereo not drawn) as the compound, how does the logD read?
Its logD is 0.97.

For `CN1CCOC(OCc2ccccc2)(c2ccccc2)C1` (stereo not drawn), which logD is on record?
Its logD is 2.05.

With `CC(C)COC1(c2ccccc2)CN(C)CCO1` (stereo not drawn) as the compound, how does the logD read?
Its logD is 1.98.

Which logD does the source give for `CCCCOC1(c2ccccc2)CN(C)CCO1` (stereo not drawn) here?
The logD was 2.05.

For `CCCOC1(c2ccccc2)CN(C)CC(C)O1` (stereo not drawn), which logD is on record?
Its logD is 1.96.
